Experiments:
Assay type in all cases: physicochemical
[1] = Moisture sorption/desorption analysis (VTI SGA-100); conditions: for solid form after moisture sorption/desorption analysis: after sorption/desorption cycle
Description: Moisture sorption/desorption data were collected on a VTI SGA-100 Vapor Sorption Analyzer. Sorption and desorption data were collected over a range of 5 to 95% relative humidity (RH) at 10% RH increments under a nitrogen purge. Sodium chloride (NaCl) and polyvinylpyrrolidone (PVP) were used as the calibration standards. Equilibrium criteria used for analysis were less than 0.0100% weight change in 5 minutes, with a maximum equilibration time of 180 minutes if the weight criterion was not met. Data collected were not corrected for the initial moisture content of the samples.

[2] = Thermogravimetric analysis (TGA)
Description: Thermogravimetric analysis (TGA) was carried out on TA Instruments TGA 2050 or 2950. The calibration standards were nickel and Alumel™. Samples were placed on a clean, aluminum sample pan, accurately weighed, and inserted into the TGA furnace. The samples were heated in nitrogen at a rate of 10° C./min, from 35° C. to a final temperature of 250° C.

[3] = Solid-state stress (compression, heating, grinding, storage) with XRPD form check
Description: X-ray powder diffraction analyses were carried out on a Shimadzu XRD-6000 X-ray powder diffractometer using Cu Kα radiation having a wavelength of 1.5406 Å. The instrument is equipped with a fine-focus X-ray tube. The tube power was set by setting potential difference at 40 kV, and current 40 mA. The divergence and scattering slits were set at 1° and the receiving slit was set at 0.15 mm. Diffracted radiation was detected by a NaI scintillation detector. A theta-two theta continuous scan at 3°/min (0.4 sec/0.02° step) from 2.5 to 40 °2θ was performed. A silicon standard was analyzed each day to check the instrument alignment. Each sample was analyzed in a quartz sample holder. A variable temperature (VT-XRPD) experiment was performed on one form. The sample was prepared for analysis by pressing it into a variable temperature holder.

[4] = Relative humidity stress experiments, XRPD after storage over saturated salt solutions
Description: In relative humidity (RH) stress analysis, open vials containing solid samples were placed inside chambers containing saturated salt solutions along with a small amount of the undissolved salt. The chambers were sealed and allowed to stand at ambient temperature for several days. Samples were analyzed by X-ray powder diffraction (XRPD) immediately after removing the sample from the RH chamber. The RH values these salt solutions were obtained from an ASTM standard.

## Nc1ncn([C@H]2C[C@H](O)[C@@H](CO)O2)c(=O)n1.O [Form B]
[1]; 95% RH
  water regained at 95% RH: 0.09%
[1]; Table 5, desorption, RH 4.98 %, 25.07 deg C, 854.2 min
  Weight % chg: −2.2984%
[1]; Table 5, desorption, RH 15.05 %, 25.07 deg C, 672.3 min
  Weight % chg: 0.0005%
[1]; Table 5, desorption, RH 25.12 %, 25.06 deg C, 665.2 min
  Weight % chg: 0.0098%
[1]; Table 5, desorption, RH 35.00 %, 25.07 deg C, 658.2 min
  Weight % chg: 0.0184%
[1]; Table 5, desorption, RH 45.01 %, 25.06 deg C, 650.7 min
  Weight % chg: 0.0274%
[1]; Table 5, desorption, RH 55.06 %, 25.06 deg C, 643.2 min
  Weight % chg: 0.0357%
[1]; Table 5, desorption, RH 65.04 %, 25.07 deg C, 635.7 min
  Weight % chg: 0.0439%
[1]; Table 5, desorption, RH 75.10 %, 25.06 deg C, 627.7 min
  Weight % chg: 0.0553%
[1]; Table 5, desorption, RH 85.33 %, 25.07 deg C, 619.7 min
  Weight % chg: 0.0688%
[1]; Table 5, sorption, RH 4.98 %, 25.06 deg C, 185.1 min
  Weight % chg: −2.3894%
[1]; Table 5, sorption, RH 15.24 %, 25.07 deg C, 193.2 min
  Weight % chg: −2.4118%
[1]; Table 5, sorption, RH 24.84 %, 25.07 deg C, 242.2 min
  Weight % chg: −2.2223%
[1]; Table 5, sorption, RH 35.00 %, 25.06 deg C, 384.9 min
  Weight % chg: −1.2517%
[1]; Table 5, sorption, RH 44.84 %, 25.06 deg C, 499.6 min
  Weight % chg: −0.5520%
[1]; Table 5, sorption, RH 54.81 %, 25.07 deg C, 556.5 min
  Weight % chg: −0.1535%
[1]; Table 5, sorption, RH 65.01 %, 25.07 deg C, 579.8 min
  Weight % chg: −0.0371%
[1]; Table 5, sorption, RH 74.89 %, 25.08 deg C, 592.3 min
  Weight % chg: 0.0119%
[1]; Table 5, sorption, RH 84.81 %, 25.08 deg C, 601.5 min
  Weight % chg: 0.0426%
[1]; Table 5, sorption, RH 94.59 %, 25.09 deg C, 613.0 min
  Weight % chg: 0.0851%
[1]; Table 5, start, RH 2.15 %, 25.08 deg C, 0.0 min
  Weight % chg: 0.0000%
[1]; Table 7, desorption, RH 4.96 %, 25.03 deg C, 887.7 min
  Weight % chg: −1.6786%
[1]; Table 7, desorption, RH 14.79 %, 25.03 deg C, 771.0 min
  Weight % chg: 6.1361%
[1]; Table 7, desorption, RH 24.87 %, 25.03 deg C, 758.6 min
  Weight % chg: 6.2283%
[1]; Table 7, desorption, RH 35.04 %, 25.03 deg C, 749.3 min
  Weight % chg: 6.3408%
[1]; Table 7, desorption, RH 45.13 %, 25.02 deg C, 739.6 min
  Weight % chg: 6.4585%
[1]; Table 7, desorption, RH 54.99 %, 25.02 deg C, 725.7 min
  Weight % chg: 6.6172%
[1]; Table 7, desorption, RH 65.12 %, 25.03 deg C, 711.7 min
  Weight % chg: 6.8321%
[1]; Table 7, desorption, RH 75.27 %, 25.03 deg C, 697.2 min
  Weight % chg: 7.1750%
[1]; Table 7, desorption, RH 85.18 %, 25.03 deg C, 673.5 min
  Weight % chg: 7.9222%
[1]; Table 7, sorption, RH 4.95 %, 25.07 deg C, 47.5 min
  Weight % chg: −1.4176%
[1]; Table 7, sorption, RH 14.98 %, 25.08 deg C, 60.6 min
  Weight % chg: −1.3613%
[1]; Table 7, sorption, RH 24.93 %, 25.08 deg C, 73.7 min
  Weight % chg: −1.2692%
[1]; Table 7, sorption, RH 35.04 %, 25.08 deg C, 94.3 min
  Weight % chg: −0.8649%
[1]; Table 7, sorption, RH 44.87 %, 25.08 deg C, 116.7 min
  Weight % chg: −0.4555%
[1]; Table 7, sorption, RH 55.02 %, 25.05 deg C, 298.7 min
  Weight % chg: 3.5457%
[1]; Table 7, sorption, RH 65.01 %, 25.05 deg C, 385.9 min
  Weight % chg: 6.2129%
[1]; Table 7, sorption, RH 74.94 %, 25.05 deg C, 413.2 min
  Weight % chg: 6.6223%
[1]; Table 7, sorption, RH 85.01 %, 25.05 deg C, 456.7 min
  Weight % chg: 7.2160%
[1]; Table 7, sorption, RH 95.15 %, 25.03 deg C, 640.2 min
  Weight % chg: 11.2538%
[1]; Table 7, start, RH 2.94 %, 25.07 deg C, 0.0 min
  Weight % chg: 0.0000%
[1]
  solid form after moisture sorption/desorption analysis: a mixture of forms B and form C
  weight (water) lost upon equilibration to 5% RH: ~2.4%
[1]; sorption cycle
  RH at which the moisture lost at 5% RH is regained: about 44 % RH
[2]; listed as B
  TGA Results: percent weight change from 25 to 150° C.: 7.212%
[2]; listed as form B
  TGA Results: percent weight change from 25 to 150° C.: 7.2%
[3]; Post TGA @ 150° C. 10 min (dry nitrogen)
  XRPD Pattern: converts to form A
[3]; heated in the presence of air
  form change in VT-XRPD experiment: converted to a mixture of forms B and C
[3]; vacuum oven at room temperature for 6 days
  form change on storage: converts to form C

## Nc1ncn([C@H]2C[C@H](O)[C@@H](CO)O2)c(=O)n1 [Form C]
[4]; Magnesium Chloride, 33.1 % RH @ 20° C., 28 days
  XRPD result: remained unchanged
[4]; Potassium Acetate, 23.1 % RH @ 20° C., 25 days
  XRPD result: converted from form C to form B
[4]; Potassium Chloride, 85.1 % RH @ 20° C., 28 days
  XRPD result: converted from form C to form B
[1]; 5 to 95% RH
  total weight gain from 5 to 95% RH: ~13%
[1]; listed as form C
  solid form after moisture sorption/desorption analysis: converts to form B
  weight (water) lost upon equilibration to 5% RH: approximately 1.4%
[1]
  weight (water) lost upon equilibration to 5% RH: 1.4%
[2]; listed as C
  TGA Results: percent weight change from 25 to 150° C.: 1.2%
[2]; listed as form C
  TGA Results: percent weight change from 25 to 150° C.: approximately 1.2%
[2]; sample prepared by vacuum evaporation of a solution in water (sample no. 1029-65-05)
  TGA weight loss at about 150° C.: ~7.2%
[2]; weight equilibrium event at 25° C. omitted from the TGA method
  TGA weight loss at about 150° C.: approximately 3.2%
